Test results: patent publication US20220125765A1, “PHARMACEUTICAL COMBINATIONS COMPRISING MEBENDAZOLE AND A STRONG OR MODERATE CYP1A2 INHIBITOR” (ZEPHAPHARM LTD, priority 2019, published 2022)
pIC50: −log10 of the molar value. Read-outs that look alike come from different tables or passages of the source.

How the values were obtained:
[1] = molecular target: human P-gp transporter (Homo sapiens, UniProt P08183); test: in vitro; details: Caco-2
[2] = molecular target: P-gp (Homo sapiens, UniProt P08183); test: in vitro; details: human
[3] = tested on: RXF 1183L; test: 2D monolayer CellTiter-Blue viability, renal cancer RXF 1183L; type: cell-based; details: for Test/Control (%) at Drug Concentration: 72 h
Method: (§1) Mebendazole was tested in vitro across a panel of 12 tumor cell lines of ovarian and renal cancer by using a 2D monolayer assay. […] OVXF 899L and RXF 486L are P-gp expressing, multidrug resistant cell lines.
(§2) Anti-tumor activity is expressed as absolute and relative IC50/70 values, calculated by 4-parameter non-linear curve fit.

[4] = tested on: SXFS RH-30; test: 2D monolayer CellTiter-Blue viability, soft tissue sarcoma RH-30; type: cell-based; details: 72 h
Method: (§3) Seventeen compounds, including mebendazole (Batch no. […] Efficacy of compounds was assessed using CellTiter-Blue® Cell Viability Assay. Anti-tumor activity is expressed as absolute and relative IC50 and IC70 values, calculated by non-linear regression analysis.

[5] = tested on: SXFS RH-41; test: 2D monolayer CellTiter-Blue viability, soft tissue sarcoma RH-41; type: cell-based; details: 72 h
Method: as §3

[6] = tested on: RXF 486L; test: 2D monolayer CellTiter-Blue viability, renal cancer RXF 486L (P-gp expressing, multidrug resistant); type: cell-based; details: for Test/Control (%) at Drug Concentration: 72 h; for pIC50: RXF 486L
Method: as §1, §2

[7] = molecular target: T1, BCRP (Homo sapiens, UniProt Q9UNQ0); test: in vitro
T1 sequence (Q9UNQ0 1-655): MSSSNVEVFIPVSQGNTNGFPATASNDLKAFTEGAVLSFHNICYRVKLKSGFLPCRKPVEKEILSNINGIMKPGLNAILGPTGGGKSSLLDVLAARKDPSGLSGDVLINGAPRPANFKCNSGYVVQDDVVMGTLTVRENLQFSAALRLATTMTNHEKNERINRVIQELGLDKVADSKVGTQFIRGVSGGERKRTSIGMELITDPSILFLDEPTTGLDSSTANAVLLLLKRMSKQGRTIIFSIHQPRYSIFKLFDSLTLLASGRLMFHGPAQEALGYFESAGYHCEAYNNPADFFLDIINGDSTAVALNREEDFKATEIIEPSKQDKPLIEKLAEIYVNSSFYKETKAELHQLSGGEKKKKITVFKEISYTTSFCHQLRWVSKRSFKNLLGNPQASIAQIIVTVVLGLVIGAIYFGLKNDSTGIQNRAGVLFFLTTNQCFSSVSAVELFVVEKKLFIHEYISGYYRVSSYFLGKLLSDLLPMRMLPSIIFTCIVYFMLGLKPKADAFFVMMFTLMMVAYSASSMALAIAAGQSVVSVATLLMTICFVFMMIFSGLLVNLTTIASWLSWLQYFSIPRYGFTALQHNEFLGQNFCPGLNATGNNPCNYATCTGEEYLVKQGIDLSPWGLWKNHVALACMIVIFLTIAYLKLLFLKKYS
From the text: Bidirectional apparent permeability of test compound was quantified by LC-MS/MS and used to determine an efflux ratio.

[8] = tested on: 8 neuroblastoma and 13 sarcoma derived cell lines; test: 2D monolayer CellTiter-Blue viability, panel geometric mean (Example 9); type: cell-based; details: 21 cell lines, 72 hours
Method: as §3

[9] = Caco-2, calculated mean % recovery values (range)

Chain of P-gp (P08183 whole entry): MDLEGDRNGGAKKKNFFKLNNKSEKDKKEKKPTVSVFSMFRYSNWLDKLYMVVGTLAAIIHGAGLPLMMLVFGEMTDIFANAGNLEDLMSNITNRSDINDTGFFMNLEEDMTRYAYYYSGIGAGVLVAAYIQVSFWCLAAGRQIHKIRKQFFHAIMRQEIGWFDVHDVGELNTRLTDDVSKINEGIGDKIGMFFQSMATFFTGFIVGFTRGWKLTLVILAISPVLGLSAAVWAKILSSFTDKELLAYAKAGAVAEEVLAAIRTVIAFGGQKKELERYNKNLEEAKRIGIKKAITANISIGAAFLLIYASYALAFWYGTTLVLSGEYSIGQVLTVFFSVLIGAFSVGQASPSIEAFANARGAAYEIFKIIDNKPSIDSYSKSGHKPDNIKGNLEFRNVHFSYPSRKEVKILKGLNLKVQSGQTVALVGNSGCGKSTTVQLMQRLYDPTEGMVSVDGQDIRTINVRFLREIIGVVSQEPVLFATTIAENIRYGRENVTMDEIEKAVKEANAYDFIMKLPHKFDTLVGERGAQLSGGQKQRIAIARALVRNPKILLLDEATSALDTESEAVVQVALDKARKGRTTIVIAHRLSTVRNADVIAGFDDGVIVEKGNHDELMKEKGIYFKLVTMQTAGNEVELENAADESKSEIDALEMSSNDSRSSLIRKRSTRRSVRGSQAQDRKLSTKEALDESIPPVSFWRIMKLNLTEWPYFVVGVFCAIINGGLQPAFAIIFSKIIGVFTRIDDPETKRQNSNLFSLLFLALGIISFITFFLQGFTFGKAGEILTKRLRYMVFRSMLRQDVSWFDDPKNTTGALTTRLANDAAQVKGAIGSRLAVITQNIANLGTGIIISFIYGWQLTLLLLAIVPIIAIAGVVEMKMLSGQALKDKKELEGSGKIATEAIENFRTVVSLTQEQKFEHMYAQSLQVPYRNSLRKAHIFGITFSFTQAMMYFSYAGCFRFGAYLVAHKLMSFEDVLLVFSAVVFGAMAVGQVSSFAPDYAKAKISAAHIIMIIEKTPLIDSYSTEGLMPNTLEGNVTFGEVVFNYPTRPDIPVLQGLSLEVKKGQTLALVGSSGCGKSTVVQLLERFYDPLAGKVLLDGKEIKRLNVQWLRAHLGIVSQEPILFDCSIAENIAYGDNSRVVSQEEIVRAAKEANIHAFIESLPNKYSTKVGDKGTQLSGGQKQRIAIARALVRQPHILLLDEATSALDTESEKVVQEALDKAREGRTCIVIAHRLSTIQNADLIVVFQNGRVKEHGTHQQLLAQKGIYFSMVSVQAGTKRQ
Chain of human P-gp transporter (P08183 whole entry): as above

- passive permeability [1]: high passive permeability
- efflux ratio at 120 min, 10 μM ([2]; Caco-2): 1.17
- Papp A→B at 120 min, 10 μM ([2]; Caco-2, Papp Mean): 25.4 ×10⁻⁶ cm/s
- Papp B→A at 120 min, 10 μM ([2]; Caco-2, Papp Mean): 29.8 ×10⁻⁶ cm/s
- Papp A→B at 120 min, 10 μM ([2]; Caco-2, Papp Rep 1): 22.4 ×10⁻⁶ cm/s
- Papp B→A at 120 min, 10 μM ([2]; Caco-2, Papp Rep 1): 30.2 ×10⁻⁶ cm/s
- Papp A→B at 120 min, 10 μM ([2]; Caco-2, Papp Rep 2): 28.5 ×10⁻⁶ cm/s
- Papp B→A at 120 min, 10 μM ([2]; Caco-2, Papp Rep 2): 29.4 ×10⁻⁶ cm/s
- recovery at 120 min, 10 µM [2, 9]: 55.7 to 75.1%
- pIC50 ([3]; RXF 1183, 72 h, read-out: Abs. IC50): 6.03
- pIC50 ([3]; RXF 1183, 72 h, read-out: Rel. IC50): 5.88
- pIC50 ([6]; RXF 486, 72 h, read-out: Abs. IC50): 6.53
- pIC50 ([6]; RXF 486, 72 h, read-out: Rel. IC50): 6.61
- efflux ratio at 120 min, 10 μM ([7]; Caco-2): 1.23
- Papp A→B at 120 min, 10 μM ([7]; Caco-2, Papp Mean): 23.5 ×10⁻⁶ cm/s
- Papp B→A at 120 min, 10 μM ([7]; Caco-2, Papp Mean): 29 ×10⁻⁶ cm/s
- Papp A→B at 120 min, 10 μM ([7]; Caco-2, Papp Rep 1): 19.7 ×10⁻⁶ cm/s
- Papp B→A at 120 min, 10 μM ([7]; Caco-2, Papp Rep 1): 28.2 ×10⁻⁶ cm/s
- Papp A→B at 120 min, 10 μM ([7]; Caco-2, Papp Rep 2): 27.4 ×10⁻⁶ cm/s
- Papp B→A at 120 min, 10 μM ([7]; Caco-2, Papp Rep 2): 29.8 ×10⁻⁶ cm/s
- recovery at 120 min, 10 µM [7, 9]: 52 to 75.7%
- pIC50 ([8]; read-out: absolute geometric mean IC50): 6.54
- pIC50 ([8]; read-out: relative geometric mean IC50): 6.55
SMILES: COC(=O)Nc1nc2ccc(C(=O)c3ccccc3)cc2[nH]1 [Mebendazole, methyl N-(6-benzoyl-1H-benzimidazol-2-yl)carbamate]
- Test/Control (%) at Drug Concentration ([3]; RXF 1183, 1.0E+00 μM): 54%
- Test/Control (%) at Drug Concentration ([3]; RXF 1183, 1.0E−01 μM): 79%
- Test/Control (%) at Drug Concentration ([3]; RXF 1183, 1.0E−02 μM): 91%
- Test/Control (%) at Drug Concentration ([3]; RXF 1183, 1.0E−03 μM): 93%
- Test/Control (%) at Drug Concentration ([3]; RXF 1183, 1.0E−04 μM): 91%
- Test/Control (%) at Drug Concentration ([3]; RXF 1183, 3.2E+00 μM): 32%
- Test/Control (%) at Drug Concentration ([3]; RXF 1183, 3.2E−01 μM): 58%
- Test/Control (%) at Drug Concentration ([3]; RXF 1183, 3.2E−02 μM): 80%
- Test/Control (%) at Drug Concentration ([3]; RXF 1183, 3.2E−03 μM): 88%
- Test/Control (%) at Drug Concentration ([3]; RXF 1183, 3.2E−04 μM): 88%
- Abs. IC70 ([3]; RXF 1183, 72 h): >3200 nM
- Rel. IC70 ([3]; RXF 1183, 72 h): >3200 nM
- Bot. (%) ([3]; RXF 1183, 72 h, curve fit): 0%
- Top (%) ([3]; RXF 1183, 72 h, curve fit): 91%
- Test/Control (%) at Drug Concentration ([4]; RH-30, 1.0E+00 μM): 19%
- Test/Control (%) at Drug Concentration ([4]; RH-30, 1.0E+01 μM): 20%
- Test/Control (%) at Drug Concentration ([4]; RH-30, 1.0E+02 μM): 5%
- Test/Control (%) at Drug Concentration ([4]; RH-30, 1.0E−01 μM): 89%
- Test/Control (%) at Drug Concentration ([4]; RH-30, 1.0E−02 μM): 104%
- Test/Control (%) at Drug Concentration ([4]; RH-30, 3.2E+00 μM): 21%
- Test/Control (%) at Drug Concentration ([4]; RH-30, 3.2E+01 μM): 13%
- Test/Control (%) at Drug Concentration ([4]; RH-30, 3.2E−01 μM): 20%
- Test/Control (%) at Drug Concentration ([4]; RH-30, 3.2E−02 μM): 95%
- Test/Control (%) at Drug Concentration ([4]; RH-30, 3.2E−03 μM): 111%
- Test/Control (%) at Drug Concentration ([5]; RH-41, 1.0E+00 μM): 5%
- Test/Control (%) at Drug Concentration ([5]; RH-41, 1.0E+01 μM): 6%
- Test/Control (%) at Drug Concentration ([5]; RH-41, 1.0E+02 μM): 1%
- Test/Control (%) at Drug Concentration ([5]; RH-41, 1.0E−01 μM): 81%
- Test/Control (%) at Drug Concentration ([5]; RH-41, 1.0E−02 μM): 105%
- Test/Control (%) at Drug Concentration ([5]; RH-41, 3.2E+00 μM): 5%
- Test/Control (%) at Drug Concentration ([5]; RH-41, 3.2E+01 μM): 4%
- Test/Control (%) at Drug Concentration ([5]; RH-41, 3.2E−01 μM): 17%
- Test/Control (%) at Drug Concentration ([5]; RH-41, 3.2E−02 μM): 93%
- Test/Control (%) at Drug Concentration ([5]; RH-41, 3.2E−03 μM): 95%
- Test/Control (%) at Drug Concentration ([6]; RXF 486, 1.0E+00 μM): 24%
- Test/Control (%) at Drug Concentration ([6]; RXF 486, 1.0E−01 μM): 88%
- Test/Control (%) at Drug Concentration ([6]; RXF 486, 1.0E−02 μM): 101%
- Test/Control (%) at Drug Concentration ([6]; RXF 486, 1.0E−03 μM): 97%
- Test/Control (%) at Drug Concentration ([6]; RXF 486, 1.0E−04 μM): 92%
- Test/Control (%) at Drug Concentration ([6]; RXF 486, 3.2E+00 μM): 17%
- Test/Control (%) at Drug Concentration ([6]; RXF 486, 3.2E−01 μM): 45%
- Test/Control (%) at Drug Concentration ([6]; RXF 486, 3.2E−02 μM): 92%
- Test/Control (%) at Drug Concentration ([6]; RXF 486, 3.2E−03 μM): 94%
- Test/Control (%) at Drug Concentration ([6]; RXF 486, 3.2E−04 μM): 96%
- Abs. IC70 ([6]; RXF 486, 72 h): 545 nM
- Rel. IC70 ([6]; RXF 486, 72 h): 362 nM
- Bot. (%) ([6]; RXF 486, 72 h, curve fit): 18%
- Top (%) ([6]; RXF 486, 72 h, curve fit): 95%
